According to publication PMC11256326, “Discovery of Heparin Mimetic, Potent, and Selective Inhibitors of Human Clotting Factor XIIIa” (ACS Omega, 2024):
Values joined by “and” are separate entries in the source; they are usually repeats but may differ in a detail not shown here. Equal entries are not always repeated. Where two headings read alike, the source gives them in different places. Marks after values point to notes of the source that are not given here.

Columns and labels:
FXIIIa [1] = biological target: T1, FXIIIa (Homo sapiens, UniProt P00488); assay: bisubstrate, fluorescence-based trans-glutamination assay; format: biochemical; conditions: for HS (Hill slope), FXIIIa inhibition: logistic fit eq 1; for IC50: pH 7.4, 37 °C, substrates dansylcadaverine and N,N-dimethylcasein
T1 construct: purchased Haematologic Technologies; host or cells: human plasma
T1 sequence (P00488 39-732 limits assumed): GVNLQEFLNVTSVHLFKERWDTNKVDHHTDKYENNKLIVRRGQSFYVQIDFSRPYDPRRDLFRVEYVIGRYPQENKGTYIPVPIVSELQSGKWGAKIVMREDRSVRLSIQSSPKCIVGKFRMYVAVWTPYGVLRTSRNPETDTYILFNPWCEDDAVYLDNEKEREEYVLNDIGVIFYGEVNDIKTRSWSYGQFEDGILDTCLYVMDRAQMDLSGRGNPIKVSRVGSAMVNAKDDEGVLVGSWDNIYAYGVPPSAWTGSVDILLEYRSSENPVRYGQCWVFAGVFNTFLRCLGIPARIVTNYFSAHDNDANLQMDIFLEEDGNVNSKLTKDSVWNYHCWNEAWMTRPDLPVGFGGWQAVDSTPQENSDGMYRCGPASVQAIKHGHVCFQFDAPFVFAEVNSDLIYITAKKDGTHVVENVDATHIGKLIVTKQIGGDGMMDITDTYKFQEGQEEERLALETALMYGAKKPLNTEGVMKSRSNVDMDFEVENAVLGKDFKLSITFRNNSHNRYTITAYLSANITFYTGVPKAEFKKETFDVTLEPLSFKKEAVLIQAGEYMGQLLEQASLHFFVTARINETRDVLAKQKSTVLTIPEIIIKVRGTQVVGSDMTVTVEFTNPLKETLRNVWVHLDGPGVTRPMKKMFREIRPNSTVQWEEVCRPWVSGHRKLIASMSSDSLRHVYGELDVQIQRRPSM
Excerpt: A series of 27 sulfonated molecules (Figure 3) was screened for inhibition of human FXIIIa using a modified bisubstrate, fluorescence-based trans-glutamination assay, as described earlier.[36],[49] Dansylcadaverine and N,N-dimethylcasein were used as two substrates, which upon FXIIIa-dependence conjugation show a marked increase in fluorescence at 550 nm (λEX = 360 nm). The sulfonated molecules were structurally diverse given their number of anionic groups (mono- (inhibitors 24–27) to octa- (inhibitor 9)), number of building blocks (monomeric (molecules 26–29) to […] (inhibitor 14)), and the nature of the building block of oligomeric derivatives (benzamide derivatives (inhibitors 3–10, 24, and 25), triazine derivatives (inhibitors 11–14), and azo-naphthalene derivatives (molecules 15–22), and ureido-naphthalene derivative (23)) (Figure 3).
To measure the potency and efficacy of these inhibitors, the dose-dependence of FXIIIa inhibition was evaluated using logistic eq 1 (Table 1). The potency of inhibition refers to the IC50 (x-axis), whereas the efficacy refers to the net change in residual FXIIIa activity (ΔY%) (y-axis). Iodoacetamide, a nonselective inhibitor of thiol-containing enzymes, was used as a positive control.
To evaluate the effect of sulfonated molecules on human FXIIIa, a bisubstrate, fluorescence-based trans-glutamination assay was performed as we reported previously.[36],[49] Generally, 1 μL of the sulfonated molecule was diluted with 87 μL of pH 7.4 buffer (50 mM Tris-HCl, 1 mM CaCl2, 100 mM NaCl, and 2 mg/mL N,N-dimethylcasein) and 5 μL dithiothreitol (20 mM) at 37 °C followed by the addition of 2 μL of human FXIIIa (0.3 μM) and incubation for 10 min. The activity of FXIIIa was monitored following the addition of 5 μL of dansylcadaverine (2 mM) by measuring the initial rate of increase in fluorescence emission (λEx. = 360 nm and λEm. = 550 nm). Relative residual FXIIIa activity at each concentration of the inhibitor was calculated from the ratio of FXIIIa activity in the presence and absence of the inhibitor. Logistic eq 1 was used to fit the concentration dependence of residual FXIIIa activity to obtain the potency (IC50) and efficacy (ΔY%) of inhibition. [drawing 1] 1
This equation defines Y as the ratio of residual FXIIIa activity with the inhibitor present compared to its absence. YM represents the maximum possible value of residual FXIIIa activity, while YO denotes the minimum possible value. IC50 signifies the concentration of the inhibitor causing 50% enzyme activity inhibition, and HS represents the Hill slope. Determination of YM, YO, IC50, and HS values is achieved through nonlinear curve fitting of the experimental data.

FXIIIa [2] = biological target: T1, FXIIIa; set-up: method as in PLoS One 11(7): e0160189; conditions: ref PLoS One 11(7): e0160189; cited from earlier work
normal human plasma [3] = assay: prothrombin time (PT) of normal human plasma; format: biochemical; conditions: in vitro
Method: (§1) To further evaluate the selectivity as well as the potential toxicity of inhibitors, we studied their effects on the clotting times of normal human plasma as well as their effects on the proliferation of three cell lines. On the one hand, the inhibitors’ effects on activated partial thromboplastin time (APTT) and prothrombin time (PT) were measured, as described earlier under in vitro conditions,[52]−[55] using variable concentrations (0–2000 μM) (Table 3). […] On the other hand, the antiproliferative properties of inhibitors 13 and 16 were evaluated in three cell lines of breast (MCF-7), intestine (CaCo-2), and kidney (HEK-293) (Figure 5B), as described earlier.[56] […] Overall, inhibitor 16 can be considered for further development as a potent, selective, and nontoxic inhibitor of human FXIIIa.
(§2) Clotting times, including activated partial thromboplastin time (APTT) and prothrombin time (PT), were assessed in normal human plasma utilizing the BBL Fibrosystem fibrometer from Becton–Dickinson, as detailed in previous publications.[51]−[54] For the PT assay, thromboplastin-D was dissolved in 4 mL of highly purified water and then warmed to 37 °C. Subsequently, 10 μL of the inhibitor was added to 90 μL of normal human plasma and incubated for 30 s. Following this, 200 μL of prewarmed PT reagent was added, and the clotting time was recorded. In the APTT assay, 10 μL of the inhibitor was combined with 90 μL of normal human plasma and 100 μL of prewarmed APTT reagent (0.2% ellagic acid). After incubation for 4 min at 37 °C, clotting was initiated by adding 100 μL of prewarmed 0.025 M CaCl2, and the clotting time was documented. Multiple concentrations of each molecule were employed in both assays to establish a concentration vs effect curve.

normal human plasma [4] = assay: activated partial thromboplastin time (APTT) of normal human plasma; format: biochemical; conditions: normal human plasma, in vitro
Method: as §1, §2

HS (Hill slope), FXIIIa inhibition (FXIIIa [1])	IC50 (FXIIIa [1])	Compound	also measured
1.5 ± 0.8	–	O=C(Nc1ccc(C(=O)Nc2ccc(C(=O)Nc3ccc(S(=O)(=O)O)c4cc(S(=O)(=O)O)cc(S(=O)(=O)O)c34)cc2)cc1)Nc1ccc(C(=O)Nc2ccc(C(=O)Nc3ccc(S(=O)(=O)O)c4cc(S(=O)(=O)O)cc(S(=O)(=O)O)c34)cc2)cc1 [compound 5]	–
0.9 ± 0.2	162 ± 37.1 µM	O=C(Nc1cccc(C(=O)Nc2ccc(S(=O)(=O)O)c3cc(S(=O)(=O)O)cc(S(=O)(=O)O)c23)c1)Nc1cccc(C(=O)Nc2ccc(S(=O)(=O)O)c3cc(S(=O)(=O)O)cc(S(=O)(=O)O)c23)c1 [compound 7]	–
–	–	O=c1c(OS(=O)(=O)O)c(-c2ccc(OS(=O)(=O)O)c(OS(=O)(=O)O)c2)oc2cc(OS(=O)(=O)O)cc(OCCCOc3cc(-c4oc5cc(OS(=O)(=O)O)cc(OCCCOc6cc(OS(=O)(=O)O)cc7oc(-c8ccc(OS(=O)(=O)O)c(OS(=O)(=O)O)c8)c(OS(=O)(=O)O)c(=O)c67)c5c(=O)c4OS(=O)(=O)O)ccc3OS(=O)(=O)O)c12 [compound 2]	HS (Hill slope), FXIIIa inhibition (FXIIIa [2]): 1.1±0.5; IC50 (FXIIIa [2]): 118 ± 50 µM; fold less potent than inhibitor 16 against FXIIIa (FXIIIa [1]): at least 15 fold
–	> 50 µM	O=C(Nc1cc(C(=O)Nc2ccc(S(=O)(=O)O)cc2)cc(C(=O)Nc2ccc(S(=O)(=O)O)cc2)c1)Nc1cc(C(=O)Nc2ccc(S(=O)(=O)O)cc2)cc(C(=O)Nc2ccc(S(=O)(=O)O)cc2)c1 [compound 10]	FXIIIa inhibition at the highest concentration tested (FXIIIa [1]): did not inhibit
–	–	O=C(Nc1ccc2c(O)cc(S(=O)(=O)O)cc2c1)Nc1ccc2c(O)cc(S(=O)(=O)O)cc2c1 [compound 23]	FXIIIa inhibition at the highest concentration tested (FXIIIa [1]): did not inhibit
–	–	O=c1c(OS(=O)(=O)O)c(-c2ccc(OS(=O)(=O)O)c(OS(=O)(=O)O)c2)oc2cc(OS(=O)(=O)O)cc(OCCOc3cc(-c4oc5cc(OS(=O)(=O)O)cc(OCCOc6cc(OS(=O)(=O)O)cc7oc(-c8ccc(OS(=O)(=O)O)c(OS(=O)(=O)O)c8)c(OS(=O)(=O)O)c(=O)c67)c5c(=O)c4OS(=O)(=O)O)ccc3OS(=O)(=O)O)c12 [compound 1, reference compound]	HS (Hill slope), FXIIIa inhibition (FXIIIa [2]): 0.9 ±0.2; fold less potent than inhibitor 16 against FXIIIa (FXIIIa [1]): at least 15 fold
0.9 ± 0.2	14.7 ± 3 µM	Cc1[nH]n(-c2cc(Cl)c(S(=O)(=O)O)cc2Cl)c(=O)c1/N=N/c1cc(Nc2nc(Cl)nc(Nc3ccc(S(=O)(=O)O)cc3)n2)ccc1S(=O)(=O)O [compound 11]	PT2X (concentration required to double PT) (normal human plasma [3]): >1667 µM; APTT2X (concentration required to double APTT) (normal human plasma [4]): 1102.72 ± 93 ^b μM
1.0 ± 0.2	77.2 ± 17.1 µM	Cc1ccc(C(=O)Nc2ccc(S(=O)(=O)O)c3cc(S(=O)(=O)O)cc(S(=O)(=O)O)c23)cc1NC(=O)c1cccc(NC(=O)Nc2cccc(C(=O)Nc3cc(C(=O)Nc4ccc(S(=O)(=O)O)c5cc(S(=O)(=O)O)cc(S(=O)(=O)O)c45)ccc3C)c2)c1 [compound 3]	–
–	> 50 µM	O=C(Nc1cccc(C(=O)Nc2cc(C(=O)Nc3ccc(S(=O)(=O)O)c4cc(S(=O)(=O)O)cc(S(=O)(=O)O)c34)ccc2F)c1)Nc1cccc(C(=O)Nc2cc(C(=O)Nc3ccc(S(=O)(=O)O)c4cc(S(=O)(=O)O)cc(S(=O)(=O)O)c34)ccc2F)c1 [compound 4]	FXIIIa inhibition at the highest concentration tested (FXIIIa [1]): did not inhibit
1.0 ± 0.3	16.5 ± 5.3 µM	CC(=O)Nc1ccc2cc(S(=O)(=O)O)c(/N=N/c3ccc(S(=O)(=O)CCOS(=O)(=O)O)cc3)c(O)c2c1 [compound 15]	APTT2X (concentration required to double APTT) (normal human plasma [4]): >1667 µM
–	> 50 µM	Cc1ccc(C(=O)Nc2cc(S(=O)(=O)O)cc3ccc(S(=O)(=O)O)cc23)cc1NC(=O)Nc1cc(C(=O)Nc2cc(S(=O)(=O)O)cc3ccc(S(=O)(=O)O)cc23)ccc1C [compound 8]	FXIIIa inhibition at the highest concentration tested (FXIIIa [1]): did not inhibit
–	> 1000 µM	Cc1ccc(C(=O)Nc2ccc(CP(=O)(O)O)cc2CP(=O)(O)O)cc1NC(=O)c1cccc(NC(=O)Nc2cccc(C(=O)Nc3cc(C(=O)Nc4ccc(CP(=O)(O)O)cc4CP(=O)(O)O)ccc3C)c2)c1 [compound 6]	–
0.9 ± 0.2	286 ± 71.5 µM	O=C(Nc1cc(C(=O)Nc2ccc(S(=O)(=O)O)cc2S(=O)(=O)O)cc(C(=O)Nc2ccc(S(=O)(=O)O)cc2S(=O)(=O)O)c1)Nc1cc(C(=O)Nc2ccc(S(=O)(=O)O)cc2S(=O)(=O)O)cc(C(=O)Nc2ccc(S(=O)(=O)O)cc2S(=O)(=O)O)c1 [compound 9]	–
1.5 ± 0.3	15.7 ± 2.1 µM	O=S(=O)(O)c1ccc(/N=N/c2ccc(/N=N/c3c(O)c(S(=O)(=O)O)cc4cc(S(=O)(=O)O)ccc34)c(S(=O)(=O)O)c2)cc1 [compound 17]	PT2X (concentration required to double PT) (normal human plasma [3]): 868.96 ± 91 µM; APTT2X (concentration required to double APTT) (normal human plasma [4]): 681.54 ± 65 µM
1.0 ± 0.1	23.6 ± 1.5 µM	CN(c1ccc2c(O)c(/N=N/c3ccccc3S(=O)(=O)O)c(S(=O)(=O)O)cc2c1)c1nc(Cl)nc(Nc2cccc(S(=O)(=O)O)c2)n1 [compound 12]	APTT2X (concentration required to double APTT) (normal human plasma [4]): 2067.59 ± 200 µM

Compound	HS (Hill slope), FXIIIa inhibition (FXIIIa [1])	IC50 (FXIIIa [1])	also measured
NC(=O)CI [Iodoacetamide, reference compound]	0.8 ± 0.2	~2.9 µM and 2.9 µM	–
